Test results: US7915297B2, “Isoxazole derivatives and use thereof” (SK Holdings Co., Ltd., priority 2005, dated 2011)

Legend:
[1] = test system: Wnt/β-catenin signaling (β-catenin activity) in SW480 cell line; assay: Cell-based Wnt agonist screening, TCF luciferase reporter, SW480 (TCF-FL); set-up: species or system human; details: Homo sapiens, % of LiCl (20 mM), 24 h, read-out: Max. Activity (%); for Emax at 1 µM: Con. 1 μM; for Emax at 30 µM: Con. 30 μM; for Emax at 120 µM: Con. 120 μM; for Emax at 10 µM: Con. 10 μM
Summary of the method: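 HEK293 and SW480 lines stably carried a 5X TCF firefly luciferase reporter under G418 selection. Cells (8,000–15,000/well, RPMI 1640 with 5% FBS) were grown 24 h, then treated with compound for 24 h. Luciferase activity was expressed as percent of the 20 mM LiCl positive control.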

[2] = test system: ST-2, a murine bone marrow stromal T cell; assay: Differentiation of ST2 cell line into osteoblasts, alkaline phosphatase activity; assay type: cell-based; details: Mus musculus, 96 h; ST-2 cells, 11 μM compound, 4 days; control treated only with ascorbic acid and β-glycerolphosphate = 100; read-out: ALP Activity (% Control)
Description: The derivatives synthesized according to the present invention were assayed for their ability to differentiate stem cells into osteoblasts. In this regard, ST-2, a murine bone marrow stromal T cell, was used to measure the activity of bone-specific alkaline phosphatase, a marker of early-stage osteoblast differentiation. In detail, the cell line was cultured in an MEM supplemented with penicillin-streptomycin (100 Units/mL) and heat-inactivated 5% fetal bovine serum under standard culture conditions (5% CO2, 37° C., 100% relative humidity). […] The suspension was diluted with the same medium to adjust the cell count to 5,000˜10,000 cells per well, and was moved in a 96-well microtiter, subsequently. After being incubated for 24 hrs, the cells were treated in a medium containing 50 μg/ml of ascorbic acid and 5 mM of β-glycerolphosphate with various concentrations of the isoxazole derivatives synthesized in Preparation Examples. During incubation for one to nine days, the Alkaline phosphatase activity was analyzed using a […] Assay kit (Promega, U.S.A.) according to the protocol described in the manual provided by the manufacturer. The activities were measured in cells which had been incubated at 11 μM of each of the compounds for 4 days. Data on the activities of the isoxazole derivatives synthesized are given in Tables 44 to 47 and are expressed as percentages of ALP relative to that measured in the control, which was treated only with ascorbic acid and β-glycerolphosphate. ALP activities according to the concentrations of Derivative (1) are depicted in FIG. 5.

Q: How did the Emax at 1 µM [1] turn out when `O=C(NCCN1CCOCC1)c1cc(-c2ccco2)on1` [Derivative (175), 5-furan-2-yl-isoxazole-3-carboxylic acid (2-morpholin-4-yl-ethyl)-amide] was run?
A: The Emax at 1 µM was 383%.

Q: What about the activity at 11 µM [2] of the same molecule?
A: Its activity at 11 µM is 767%.

Q: Which Emax at 30 µM [1] does the source give for `CN(CCCNC(=O)c1cc(-c2ccco2)on1)c1ccccc1` [Derivative (203), 5-furan-2-yl-isoxazole-3-carboxylic acid [3-(methyl-phenyl-amino)-propyl]-amide] here?
A: The Emax at 30 µM was 851%.

Q: And the activity at 11 µM [2]?
A: The activity at 11 µM was 260%.

Q: `CC(=O)N1CCN(CCNC(=O)c2cc(-c3ccco3)on2)CC1` [Derivative (178), 5-furan-2-yl-isoxazole-3-carboxylic acid [2-(4-acetyl-piperazin-1-yl)-ethyl]-amide] was tested. Which Emax at 120 µM [1] did it give?
A: The Emax at 120 µM was 301%.

Q: What about the activity at 11 µM [2] of the same molecule?
A: The activity at 11 µM was 475%.

Q: How did the Emax at 30 µM [1] turn out when `Cn1cccc1-c1cc(C(=O)NCCCn2ccnc2)no1` [Derivative (149), 5-(1-methyl-1H-pyrrol-2-yl)-isoxazole-3-carboxylic acid (3-imidazol-1-yl-propyl)-amide] was run?
A: Its Emax at 30 µM is 70%.

Q: What about the activity at 11 µM [2] of the same molecule?
A: Its activity at 11 µM is 275%.

Q: What does the source list for `O=C(NCCSc1ccccc1)c1cc(-c2cccs2)on1` [Derivative (218), 5-thiophen-2-yl-isoxazole-3-carboxylic acid (2-phenylsulfanyl-ethyl)-amide]?
A: Emax at 30 µM [1]: 55%; activity at 11 µM [2]: 128%

Q: Which results are given for `O=C(NCCCn1ccnc1)c1cc(N2CCOCC2)on1` [Derivative (161), 5-morpholin-4-yl-isoxazole-3-carboxylic acid (3-imidazol-1-yl-propyl)-amide]?
A: Emax at 120 µM [1]: 33%; activity at 11 µM [2]: 89%

Q: Which Emax at 120 µM [1] does the source give for `O=C(NCCc1ccc(O)cc1)c1cc(-c2cccs2)on1` [Derivative (141), 5-thiophen-2-yl-isoxazole-3-carboxylic acid [2-(4-hydroxy-phenyl)-ethyl]-amide] here?
A: The Emax at 120 µM was 519%.

Q: What about the activity at 11 µM [2] of the same molecule?
A: The activity at 11 µM was 790%.

Q: With `O=C(NCCn1cccn1)c1cc(-c2ccco2)on1` [Derivative (39), 5-furan-2-yl-isoxazole-3-carboxylic acid (2-pyrazol-1-yl-ethyl)-amide] as the molecule, how does the Emax at 30 µM [1] read?
A: Its Emax at 30 µM is 344%.

Q: What about the activity at 11 µM [2] of the same molecule?
A: The activity at 11 µM was 190%.

Q: Which results are given for `O=C(NCCCn1cncn1)c1cc(-c2ccc[nH]2)on1` [Derivative (159), 5-(1H-pyrrol-2-yl)-isoxazole-3-carboxylic acid (3-[1,2,4]triazol-1-yl-propyl)-amide]?
A: Emax at 30 µM [1]: 128%; activity at 11 µM [2]: 130%

Q: Which Emax at 10 µM [1] does the source give for `O=C(NCCCn1cncn1)c1cc(N2CCOCC2)on1` [Derivative (162), 5-morpholin-4-yl-isoxazole-3-carboxylic acid (3-[1,2,4]-triazol-1-yl-propyl)-amide] here?
A: Its Emax at 10 µM is 30%.

Q: And the activity at 11 µM [2]?
A: The activity at 11 µM was 60%.

Q: Which results are given for `Cc1nccn1CCCNC(=O)c1cc(-c2ccco2)on1` [Derivative (44), 5-furan-2-yl-isoxazole-3-carboxylic acid [3-(2-methyl-imidazol-1-yl)-propyl]-amide]?
A: Emax at 120 µM [1]: 657%; activity at 11 µM [2]: 997%

Q: With `O=C(NCCNC(=O)c1cc(-c2cccs2)on1)Nc1ccccc1` [Derivative (211), 5-thiophen-2-yl-isoxazole-3-carboxylic acid [2-(3-phenyl-urido)-ethyl]-amide] as the molecule, how does the Emax at 30 µM [1] read?
A: The Emax at 30 µM was 158%.

Q: And the activity at 11 µM [2]?
A: Its activity at 11 µM is 204%.

Q: With `O=C(NCCCn1ccnc1)c1cc(C2CCCCC2)on1` [Derivative (164), 5-cyclohexyl-3-isoxazole-3-carboxylic acid (3-imidazol-1-yl-propyl)-amide] as the molecule, how does the Emax at 120 µM [1] read?
A: The Emax at 120 µM was 55%.

Q: And the activity at 11 µM [2]?
A: Its activity at 11 µM is 241%.

Q: Which results are given for `O=C(NCCn1cncn1)c1cc(N2CCOCC2)on1` [Derivative (163), 5-morpholin-4-yl-isoxazole-3-carboxylic acid (2-[1,2,4]-triazol-1-yl-ethyl)-amide]?
A: Emax at 120 µM [1]: 34%; activity at 11 µM [2]: 166%

Q: Which results are given for `O=C(NCCCn1ccnc1)c1cc(-c2cc3ccccc3o2)on1` [Derivative (169), 5-benzofuran-2-yl-isoxazole-3-carboxylic acid (3-imidazol-1-yl-propyl)-amide]?
A: Emax at 1 µM [1]: 43%; activity at 11 µM [2]: 83%

Q: For `O=C(NCCN1CCN(c2ncccc2C(F)(F)F)CC1)c1cc(-c2ccco2)on1` [Derivative (191), 5-furan-2-yl-isoxazole-3-carboxylic acid {2-[4-(3-trifluoromethyl-pyridin-2-yl)-piperazin-1-yl]-ethyl}-amide], which Emax at 30 µM [1] is on record?
A: The Emax at 30 µM was 91%.

Q: And the activity at 11 µM [2]?
A: Its activity at 11 µM is 309%.

Q: For `O=C(NCCn1cncn1)c1cc(-c2cc3ccccc3o2)on1` [Derivative (171), 5-benzofuran-2-yl-isoxazole-3-carboxylic acid (2-[1,2,4]triazol-1-yl-ethyl)-amide], which Emax at 120 µM [1] is on record?
A: The Emax at 120 µM was 43%.

Q: What about the activity at 11 µM [2] of the same molecule?
A: The activity at 11 µM was 74%.

Q: Which Emax at 30 µM [1] does the source give for `O=C(NCCN1CCN(c2ccccn2)CC1)c1cc(-c2ccco2)on1` [Derivative (182), 5-furan-2-yl-isoxazole-3-carboxylic acid [2-(4-pyridin-2-yl-piperazin-1-yl)-ethyl]-amide] here?
A: Its Emax at 30 µM is 413%.

Q: What about the activity at 11 µM [2] of the same molecule?
A: Its activity at 11 µM is 887%.

Q: Which results are given for `CC(C)(C)c1cc(C(=O)NCCCn2cncn2)no1` [Derivative (168), 5-tert-butyl-3-isoxazole-3-carboxylic acid (3-[1,2,4]-triazol-1-yl-propyl)-amide]?
A: Emax at 10 µM [1]: 40%; activity at 11 µM [2]: 97%

Q: Which results are given for `O=C(NCCOc1ccccc1)c1cc(-c2cccs2)on1` [Derivative (215), 5-thiophen-2-yl-isoxazole-3-carboxylic acid (2-phenoxy-ethyl)-amide]?
A: Emax at 30 µM [1]: 90%; activity at 11 µM [2]: 162%

Q: For `O=C(NCCN1CCNCC1)c1cc(-c2ccco2)on1` [Derivative (176), 5-furan-2-yl-isoxazole-3-carboxylic acid (2-piperazin-1-yl-ethyl)-amide], which Emax at 30 µM [1] is on record?
A: The Emax at 30 µM was 93%.

Q: And the activity at 11 µM [2]?
A: The activity at 11 µM was 179%.

Q: Which Emax at 10 µM [1] does the source give for `O=C(NCCN1CCN(c2ccc(F)cc2)CC1)c1cc(-c2ccco2)on1` [Derivative (179), 5-furan-2-yl-isoxazole-3-carboxylic acid {2-[4-(4-fluorophenyl)-piperazin-1-yl]-ethyl}-amide] here?
A: The Emax at 10 µM was 73%.

Q: And the activity at 11 µM [2]?
A: Its activity at 11 µM is 356%.

Q: For `Cn1cccc1-c1cc(C(=O)NCCCn2cncn2)no1` [Derivative (150)], which Emax at 30 µM [1] is on record?
A: The Emax at 30 µM was 78%.

Q: What about the activity at 11 µM [2] of the same molecule?
A: Its activity at 11 µM is 328%.

Q: What does the source list for `O=C(CNC(=O)c1cc(-c2ccco2)on1)Nc1ccccn1` [Derivative (208), 5-furan-2-yl-isoxazole-3-carboxylic acid (pyridin-2-ylcarbamoylmethyl)-amide]?
A: Emax at 30 µM [1]: 110%; activity at 11 µM [2]: 57%

Q: For `O=C(NCCNc1ccccn1)c1cc(-c2ccco2)on1` [Derivative (204), 5-furan-2-yl-isoxazole-3-carboxylic acid [2-(pyridin-2-ylamino)-ethyl]-amide], which Emax at 120 µM [1] is on record?
A: Its Emax at 120 µM is 369%.

Q: And the activity at 11 µM [2]?
A: Its activity at 11 µM is 150%.

Q: For `Cn1cccc1-c1cc(C(=O)NCCn2cncn2)no1` [Derivative (151), 5-(1-methyl-1H-pyrrol-2-yl)-isoxazole-3-carboxylic acid (2-[1,2,4]triazol-1-yl-ethyl)-amide], which Emax at 30 µM [1] is on record?
A: Its Emax at 30 µM is 41%.

Q: What about the activity at 11 µM [2] of the same molecule?
A: Its activity at 11 µM is 151%.

Q: Which Emax at 30 µM [1] does the source give for `COc1ccc(NCCNC(=O)c2cc(-c3ccco3)on2)cc1` [Derivative (200), 5-furan-2-yl-isoxazole-3-carboxylic acid [2-(4-methoxy-phenylamino)-ethyl]-amide] here?
A: Its Emax at 30 µM is 106%.

Q: What about the activity at 11 µM [2] of the same molecule?
A: Its activity at 11 µM is 162%.

Q: `COc1ccc(N2CCN(CCNC(=O)c3cc(-c4ccco4)on3)CC2)cc1` [Derivative (181), 5-furan-2-yl-isoxazole-3-carboxylic acid {2-[4-(4-methoxyphenyl)-piperazin-1-yl]-ethyl}-amide] was tested. Which Emax at 1 µM [1] did it give?
A: The Emax at 1 µM was 73%.

Q: What about the activity at 11 µM [2] of the same molecule?
A: The activity at 11 µM was 681%.

Q: What does the source list for `O=C(NCCN1CCN(c2ccc(Cl)cc2)CC1)c1cc(-c2ccco2)on1` [Derivative (184), 5-furan-2-yl-isoxazole-3-carboxylic acid {2-[4-(4-chlorophenyl)-piperazin-1-yl]-ethyl}-amide]?
A: Emax at 30 µM [1]: 70%; activity at 11 µM [2]: 126%

Q: With `O=C(NCCNc1ccc(Cl)cc1)c1cc(-c2ccco2)on1` [Derivative (198), 5-furan-2-yl-isoxazole-3-carboxylic acid [2-(4-chloro-phenylamino)-ethyl]-amide] as the molecule, how does the Emax at 30 µM [1] read?
A: Its Emax at 30 µM is 50%.

Q: And the activity at 11 µM [2]?
A: Its activity at 11 µM is 100%.

Q: `O=C(CCNC(=O)c1cc(-c2cccs2)on1)c1ccccc1` [Derivative (206), 5-thiophen-2-yl-isoxazole-3-carboxylic acid (3-oxo-3-phenyl-propyl)-amide] was tested. Which Emax at 120 µM [1] did it give?
A: Its Emax at 120 µM is 584%.

Q: And the activity at 11 µM [2]?
A: The activity at 11 µM was 772%.

Q: What does the source list for `O=C(NCCn1ccnc1)c1cc(-c2ccsc2)on1` [Derivative (157), 5-thiophen-3-yl-isoxazole-3-carboxylic acid (2-imidazol-1-yl-ethyl)-amide]?
A: Emax at 30 µM [1]: 871%; activity at 11 µM [2]: 809%
